In test [1] the target is dopamine D1 receptors (Homo sapiens, UniProt P21728). Put plainly: Dopamine D1 receptor binding. The settings on record: data not shown.
Test [2] deals with T1, human D3 dopamine receptor (D3R) (Homo sapiens, UniProt P35462). Type of test: binding. The settings on record: for decrease of D3R binding affinity on replacing the amide by the amine linker: amine analogue vs corresponding amide (13b vs 19; 15b vs 8j); for D2/D3: ratio of Ki values.
For test [3], the target named is hD3 (D3R) (Homo sapiens, UniProt P35462). Put plainly: Quinpirole-induced mitogenesis assay in hD3-transfected CHOp cells. The format is cell-based.
The target in test [4] is human D2L dopamine receptor (D2R) (Homo sapiens, UniProt P14416). Type of test: binding. The settings on record: for Ki: read-out: D2R Ki ± S.E.M., Table 2, HEK 293 hD2LR, 125I-IABN.
Test [5] concerns the target T1, human D3 dopamine receptor (D3R). To be noted: Table 2; previously reported, ref [6]; cited from earlier work.

Like-named read-outs stand apart in the source and are kept apart here.

Chain of hD3 (D3R) (P35462 whole entry): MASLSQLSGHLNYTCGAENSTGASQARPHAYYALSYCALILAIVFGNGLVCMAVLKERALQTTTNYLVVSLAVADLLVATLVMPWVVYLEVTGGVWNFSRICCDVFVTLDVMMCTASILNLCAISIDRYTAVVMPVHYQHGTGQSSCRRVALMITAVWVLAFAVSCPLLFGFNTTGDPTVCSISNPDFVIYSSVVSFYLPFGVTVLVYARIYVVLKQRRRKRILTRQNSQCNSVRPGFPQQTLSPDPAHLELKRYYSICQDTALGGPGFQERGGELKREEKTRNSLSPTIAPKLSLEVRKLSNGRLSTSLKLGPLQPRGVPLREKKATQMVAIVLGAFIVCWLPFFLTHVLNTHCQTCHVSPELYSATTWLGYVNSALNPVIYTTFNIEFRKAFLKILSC
T1 sequence (P35462 whole entry): as above
Chain of human D2L dopamine receptor (D2R) (P14416 whole entry): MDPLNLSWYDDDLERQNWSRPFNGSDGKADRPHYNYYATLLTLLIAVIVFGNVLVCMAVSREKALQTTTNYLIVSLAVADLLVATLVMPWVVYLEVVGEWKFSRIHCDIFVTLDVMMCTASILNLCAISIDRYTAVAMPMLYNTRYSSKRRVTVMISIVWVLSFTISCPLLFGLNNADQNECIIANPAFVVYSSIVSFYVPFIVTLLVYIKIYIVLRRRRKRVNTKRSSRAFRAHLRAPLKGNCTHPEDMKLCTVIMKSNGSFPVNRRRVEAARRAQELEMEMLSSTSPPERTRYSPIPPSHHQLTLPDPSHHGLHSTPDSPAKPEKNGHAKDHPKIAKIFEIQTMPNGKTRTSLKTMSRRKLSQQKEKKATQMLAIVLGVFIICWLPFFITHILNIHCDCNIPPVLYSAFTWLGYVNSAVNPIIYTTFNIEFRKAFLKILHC
Chain of dopamine D1 receptors (P21728 whole entry): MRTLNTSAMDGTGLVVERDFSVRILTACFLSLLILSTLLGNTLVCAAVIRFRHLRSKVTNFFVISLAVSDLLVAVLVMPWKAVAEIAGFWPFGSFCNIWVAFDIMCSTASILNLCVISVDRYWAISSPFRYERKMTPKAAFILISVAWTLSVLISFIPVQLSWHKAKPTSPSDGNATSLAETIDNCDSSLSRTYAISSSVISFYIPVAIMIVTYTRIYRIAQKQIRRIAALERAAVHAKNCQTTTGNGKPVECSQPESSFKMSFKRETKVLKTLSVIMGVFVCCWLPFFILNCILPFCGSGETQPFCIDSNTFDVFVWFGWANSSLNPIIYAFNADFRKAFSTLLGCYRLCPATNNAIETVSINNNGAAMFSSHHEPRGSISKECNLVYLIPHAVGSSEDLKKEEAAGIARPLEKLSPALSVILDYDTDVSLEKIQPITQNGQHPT

As to `O=C(NCCC(F)CN1CCN(c2cccc(Cl)c2Cl)CC1)c1cc2ccccc2o1` (centres unmarked) [Compound 8d, N-(4-(4-(2,3-Dichlorophenyl)piperazin-1-yl)-3-fluorobutyl)benzofuran-2-carboxamide], in test [1], the “binding at dopamine D1 receptors” value is listed as “selectivity over D1”.

Take `O=C(NCCC(F)CN1CCN(c2cccc(Cl)c2Cl)CC1)c1cc2ccccc2[nH]1` (centres unmarked) [Compound 8h, N-(4-(4-(2,3-Dichlorophenyl)piperazin-1-yl)-3-fluorobutyl)-1H-indole-2-carboxamide]: the “D3R-selectivity over D2R” value in test [2] is listed as greater than 130 fold.

In the case of `COc1ccccc1N1CCN(CC(F)CCNC(=O)c2ccc3c(c2)Cc2ccccc2-3)CC1` (centres unmarked) [Compound 8i, N-(3-Fluoro-4-(4-(2-methoxyphenyl)piperazin-1-yl)butyl)-9H-fluorene-2-carboxamide], in test [1], the “binding at dopamine D1 receptors” value is listed as “selectivity over D1”.

Turning to `O=C(NCCC(F)CN1CCN(c2cccc(Cl)c2Cl)CC1)c1ccc2c(c1)Cc1ccccc1-2` (centres unmarked) [Compound 8j, N-(4-(4-(2,3-Dichlorophenyl)piperazin-1-yl)-3-fluorobutyl)-9H-fluorene-2-carboxamide], the “binding at dopamine D1 receptors” value in test [1] is on record as “selectivity over D1”. Besides, in test [2], the “D3R-selectivity over D2R” value is on record as greater than 1000 fold.

On to `COc1ccccc1N1CCN(CC(F)CCNC(=O)c2cc3ccccc3s2)CC1` (centres unmarked) [Compound 8k, N-(3-Fluoro-4-(4-(2-methoxyphenyl)piperazin-1-yl)butyl)benzo[b]thiophene-2-carboxamide], for which the “D3R-selectivity over D2R” value in test [2] is reported as greater than 60 fold.

For the compound `O=C(NCCC(F)CN1CCN(c2cccc(Cl)c2Cl)CC1)c1cc2ccccc2s1` (centres unmarked) [Compound 8l, N-(4-(4-(2,3-Dichlorophenyl)piperazin-1-yl)-3-fluorobutyl)benzo[b]thiophene-2-carboxamide], the “D3R-selectivity over D2R” value in test [2] is recorded as greater than 130 fold.

For `COc1ccc2[nH]c(C(=O)NCCC(F)CN3CCN(c4ccccc4OC)CC3)cc2c1` (centres unmarked) [Compound 8m, N-(3-Fluoro-4-(4-(2-methoxyphenyl)piperazin-1-yl)butyl)-5-methoxy-1H-indole-2-carboxamide], the “D3R-selectivity over D2R” value in test [2] was greater than 60 fold.

A word on the EC50: it is the concentration that produces a half-maximal response. Regarding `COc1ccc2[nH]c(C(=O)NCCC(F)CN3CCN(c4cccc(Cl)c4Cl)CC3)cc2c1` (centres unmarked) [Compound 8n, N-(4-(4-(2,3-Dichlorophenyl)piperazin-1-yl)-3-fluorobutyl)-5-methoxy-1H-indole-2-carboxamide], in test [3], the EC50 is 4.9 nM and the “functional profile in the D3R mitogenesis assay” value was “more potent partial agonist than an antagonist”. The “D3 mitogenesis % stimulation” value in test [3] (agonist mode, value in parentheses) is on record as 14.9%. In addition, the “D3R-selectivity over D2R” value in test [2] is greater than 130 fold.

Take `CN(CCC(F)CN1CCN(c2cccc(Cl)c2Cl)CC1)Cc1ccc2c(c1)Cc1ccccc1-2` (centres unmarked) [Compound 15b, N-((9H-Fluoren-2-yl)methyl)-4-(4-(2,3-dichlorophenyl)piperazin-1-yl)-3-fluoro-N-methylbutan-1-amine]: the “D2R binding affinity increased on replacing the amide by the amine linker” value in test [4] (15b vs amide 8j) is recorded as ~ 2 fold. The “decrease of D3R binding affinity on replacing the amide by the amine linker” value in test [2] is reported as 150 fold.

Take `COc1ccccc1N1CCN(CCCCNC(=O)c2ccc3c(c2)Cc2ccccc2-3)CC1` [Compound 18, N-(4-(4-(2-methoxyphenyl)piperazin-1-yl)butyl)-9H-fluorene-2-carboxamide]: the D2/D3 in test [5] is reported as 185.

As a reminder, the Ki is the equilibrium dissociation constant of an inhibitor or competing ligand from its target. As for “N-(Benzo[b]thiophen-2-ylmethyl)-4-(4-(2,3-dichlorophenyl)piperazin-1-yl)-N-propylbutan-1-amine [Compound 13b]”, the “D2R binding affinity reduced on replacing the amide by the amine linker” value in test [4] (13b vs amide 19) is listed as 2.5 fold. The Ki in test [4] amounted to 162 ± 1.2 nM. Also, in test [2], the “D3R-selectivity over D2R” value turned out to be 2 fold and the “decrease of D3R binding affinity on replacing the amide by the amine linker” value is on record as 126 fold. Moreover, the D2/D3 in test [2] (Table 2) is on record as 2.

In the case of “N-(Benzo[b]thiophen-2-ylmethyl)-4-(4-(2-methoxyphenyl)piperazin-1-yl)-N-propylbutan-1-amine [Compound 13a]”, the Ki in test [4] amounted to 69.9 ± 7.3 nM; in test [2] (read-out: D3R Ki ± S.E.M., Table 2, HEK 293 hD3R, 125I-IABN), 67.9 ± 2.4 nM. Further, in test [2] (Table 2), the D2/D3 is 1.

(Values after PMC3100590 (Journal of medicinal chemistry, 2011).)
